Our source for the melting point and EC50 values is patent US8697744B2, “Substituted 5,6-dihydro-4H-thiazolo[4,5-E]indazoles and their use as positive allosteric modulators of metabotropic glutamate receptors” (Addex Pharma S.A., priority 2009, dated 2014).

Data set [1] deals with T1, recombinant human mGluR4a receptors (Homo sapiens, UniProt Q14833).
T1 construct: expressed in transfected cells
Nature of the data set: mGluR4 assay on HEK-expressing human mGluR4: fluorescent cell based Ca2+ mobilization assay (FLIPR). The following applies: HEK-293 cells expressing hmGluR4; enhancement of EC25 glutamate response; mean of at least three independent experiments in duplicate; read-out: Ca^2+ Flux (mean EC50). The text has this:
mGluR4 Assay on HEK-Expressing Human mGluR4
The compounds of the present invention are positive allosteric modulators of mGluR4 receptor. Their activity was examined on recombinant human mGluR4a receptors by detecting changes in intracellular Ca^2+ concentration, using the fluorescent Ca^2+-sensitive dye Fluo-4-(AM) and a Fluorometric Imaging Plate Reader (FLIPR, Molecular Devices, Sunnyvale, Calif.).
The cDNA encoding the human metabotropic glutamate receptor (hmGluR4), (accession number NM_000841.1, NCBI Nucleotide database browser), was subcloned into an expression vector containing also the hygromycin resistance gene. In parallel, the cDNA encoding a G protein allowing redirection of the activation signal to intracellular calcium flux was subcloned into a different expression vector containing also the puromycin resistance gene. Transfection of both these vectors into HEK293 cells with PolyFect reagent (Qiagen) according to supplier's protocol, and hygromycin and puromycin treatment allowed selection of antibiotic resistant cells which had integrated stably one or more copies of the plasmids. Positive cellular clones expressing hmGluR4 were identified in a functional assay measuring changes in calcium fluxes in response to glutamate or selective known mGluR4 orthosteric agonists and antagonists. HEK-293 cells expressing hmGluR4 were maintained in media containing DMEM, dialyzed Fetal Calf Serum (10%), Glutamax™ (2 mM), Penicillin (100 units/mL), Streptomycin (100 μg/mL), Geneticin (100 μg/mL) and Hygromycin-B (40 μg/mL) and puromycin (1 μg/mL) at 37° C./5% CO2.
Human mGluR4HEK-293 cells were plated out 24 hours prior to FLIPR^384 assay in black-walled, clear-bottomed, poly-L-ornithine-coated 384-well plates at a density of 25,000 cells/well in a glutamine/glutamate free DMEM medium containing foetal bovine serum (10%), penicillin (100 units/mL) and streptomycin (100 μg/mL) at 37° C./5% CO2.
On the day of the assay, the medium was aspirated and the cells were loaded with a 3 μM solution of Fluo-4-AM (LuBioScience, Lucerne, Switzerland) in 0.03% pluronic acid. After 1 hour at 37° C./5% CO2, the non incorporated dye was removed by washing cell plate with the assay buffer and the cells were left in the dark at room temperature for […] before testing. All assays were performed in a pH 7.4 buffered-solution containing 20 mM HEPES, 143 mM NaCl, 6 mM KCl, 1 mM MgSO4, 1 mM CaCl2, 0.125 mM sulfapyrazone and 0.1% glucose.
After 10 s of basal fluorescence recording, various concentrations of the compounds of the invention were added to the cells. Changes in fluorescence levels were first monitored for 180 s in order to detect any agonist activity of the compounds. Then the cells were stimulated by an EC25 glutamate concentration for an additional 110 s in order to measure enhancing activities of the compounds of the invention. EC25 glutamate concentration is the concentration giving 25% of the maximal glutamate response.
The concentration-response curves of representative compounds of the present invention were generated using the Prism GraphPad software (Graph Pad Inc, San Diego, USA). The curves were fitted to a four-parameter logistic equation: (Y=Bottom+(Top−Bottom)/(1+10^((LogEC50−X)*Hill Slope) allowing the determination of EC50 values.
The Table 3 below represents the mean EC50 obtained from at least three independent experiments of selected molecules performed in duplicate.

T1 sequence (Q14833 33-912): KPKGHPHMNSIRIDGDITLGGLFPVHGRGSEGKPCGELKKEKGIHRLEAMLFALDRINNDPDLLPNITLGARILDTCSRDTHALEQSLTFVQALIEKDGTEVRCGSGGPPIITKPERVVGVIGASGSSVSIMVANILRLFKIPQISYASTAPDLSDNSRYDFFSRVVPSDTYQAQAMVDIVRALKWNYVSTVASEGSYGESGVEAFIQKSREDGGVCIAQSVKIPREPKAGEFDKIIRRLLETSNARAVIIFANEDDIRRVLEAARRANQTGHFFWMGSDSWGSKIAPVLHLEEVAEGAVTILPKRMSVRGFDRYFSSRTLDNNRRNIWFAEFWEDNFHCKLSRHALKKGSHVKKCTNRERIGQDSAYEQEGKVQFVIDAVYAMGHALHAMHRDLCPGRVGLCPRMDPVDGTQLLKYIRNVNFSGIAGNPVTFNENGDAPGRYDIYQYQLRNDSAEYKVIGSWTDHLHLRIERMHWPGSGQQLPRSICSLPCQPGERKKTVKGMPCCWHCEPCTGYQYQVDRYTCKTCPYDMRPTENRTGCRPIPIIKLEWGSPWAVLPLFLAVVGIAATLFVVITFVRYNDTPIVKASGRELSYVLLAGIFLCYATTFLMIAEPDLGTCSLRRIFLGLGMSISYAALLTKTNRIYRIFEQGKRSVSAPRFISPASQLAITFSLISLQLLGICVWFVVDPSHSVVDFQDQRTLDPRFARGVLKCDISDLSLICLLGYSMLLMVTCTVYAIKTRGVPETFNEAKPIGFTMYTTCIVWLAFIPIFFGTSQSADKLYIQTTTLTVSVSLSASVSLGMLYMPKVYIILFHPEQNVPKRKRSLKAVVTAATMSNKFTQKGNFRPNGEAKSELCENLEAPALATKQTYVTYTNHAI

Consider `Cc1cccc(Nc2nc3c(s2)CCCc2[nH]ncc2-3)n1` [Compound 1-11, (6-Methyl-pyridin-2-yl)-(4,5,6,7-tetrahydro-3-thia-1,7,8-triaza-cyclopenta[e]azulen-2-yl)-amine], for which the melting point was 312 °C (dec.).
Molecule `CC1Cc2[nH]ncc2-c2nc(Nc3ncccn3)sc21` (centres unmarked) [Compound 1-33, 4-Methyl-N-(pyrimidin-2-yl)-5,6-dihydro-4H-thiazolo[4,5-e]indazol-2-amine] displayed a melting point of over 373 °C.
The molecule `Cc1cccc(Nc2nc3c(s2)CCc2[nH]ncc2-3)n1` [Compound 1-3, N-(6-Methylpyridin-2-yl)-5,6-dihydro-4H-thiazolo[4,5-e]indazol-2-amine] displayed a melting point of 280 °C. The EC50 in data set [1] was in the range of 100 to 1000 nM.
Molecule `c1cnc(Nc2nc3c(s2)CCc2[nH]ncc2-3)nc1` [Compound 1-26, N-(Pyrimidin-2-yl)-5,6-dihydro-4H-thiazolo[4,5-e]indazol-2-amine] had a melting point of 281 to 282 °C.
Regarding `COc1cccc(Nc2nc3c(s2)CCCc2[nH]ncc2-3)n1` [Compound 1-14, (6-Methoxy-pyridin-2-yl)-(4,5,6,7-tetrahydro-3-thia-1,7,8-triaza-cyclopenta[e]azulen-2-yl)-amine], the melting point is 300 °C (dec.). The EC50 in data set [1] was 1000 to 10000 nM.
As for `c1cnc(Nc2nc3c(s2)CCCc2[nH]ncc2-3)nc1` [Compound 1-25, Pyrimidin-2-yl-(4,5,6,7-tetrahydro-3-thia-1,7,8-triaza-cyclopenta[e]azulen-2-yl)-amine], the melting point was 310 °C (dec.).
Still for that read-out and setting: the figure for `Cc1ccnc(Nc2nc3c(s2)CCc2[nH]ncc2-3)n1` [Compound 1-29, N-(4-Methylpyrimidin-2-yl)-5,6-dihydro-4H-thiazolo[4,5-e]indazol-2-amine] is 283 °C (dec.); for `c1n[nH]c2c1-c1nc(NC3CCCC3)sc1CC2` [Compound 1-18, N-Cyclopentyl-5,6-dihydro-4H-thiazolo[4,5-e]indazol-2-amine] it is 166 to 168 °C.
Molecule `c1ccc(Nc2nc3c(s2)CCc2[nH]ncc2-3)nc1` [Compound 1-1, N-(Pyridin-2-yl)-5,6-dihydro-4H-thiazolo[4,5-e]indazol-2-amine] gave a melting point of 297 to 299 °C. Moreover, the EC50 in data set [1] is under 100 nM.
As for `Cc1ccnc(Nc2nc3c(s2)CCCc2[nH]ncc2-3)n1` [Compound 1-30, (4-Methyl-pyrimidin-2-yl)-(4,5,6,7-tetrahydro-3-thia-1,7,8-triaza-cyclopenta[e]azulen-2-yl)-amine], the melting point is 297 °C (dec.).
The same measure, in the same setting: the figure for `Fc1cccc(Nc2nc3c(s2)CCCc2[nH]ncc2-3)n1` is 314 °C (dec.); for `Fc1ccc(Nc2nc3c(s2)CCCc2[nH]ncc2-3)nc1` [Compound 1-12, (5-Fluoro-pyridin-2-yl)-(4,5,6,7-tetrahydro-3-thia-1,7,8-triaza-cyclopenta[e]azulen-2-yl)-amine] it is 314 °C (dec.); for `CC(C)C(=O)n1ncc2c1CCc1sc(Nc3ccccn3)nc1-2` [Compound 1-2, 2-Methyl-1-(2-(pyridin-2-ylamino)-4H-thiazolo[4,5-e]indazol-6(5H)-yl)propan-1-one] it is 167 to 168 °C.
In the case of `Fc1cccnc1Nc1nc2c(s1)CCCc1[nH]ncc1-2` [Compound 1-13, (3-Fluoro-pyridin-2-yl)-(4,5,6,7-tetrahydro-3-thia-1,7,8-triaza-cyclopenta[e]azulen-2-yl)-amine], the melting point is 300 °C (dec.). Further, in data set [1], the EC50 is under 100 nM.
Consider `c1n[nH]c2c1-c1nc(NC3CCCC3)sc1CCC2` [Compound 1-24, Cyclopentyl-(4,5,6,7-tetrahydro-3-thia-1,7,8-triaza-cyclopenta[e]azulen-2-yl)-amine], for which the melting point is 248 °C (dec.).
The same measure, in the same setting: next, `Fc1cccnc1Nc1nc2c(s1)CCc1[nH]ncc1-2` [Compound 1-10, N-(3-Fluoropyridin-2-yl)-5,6-dihydro-4H-thiazolo[4,5-e]indazol-2-amine]: 300 °C (dec.).
The same measure, in the same setting: the figure for `CC1(C)Cc2[nH]ncc2-c2nc(Nc3ncccn3)sc21` [Compound 1-32, 4,4-Dimethyl-N-(pyrimidin-2-yl)-5,6-dihydro-4H-thiazolo[4,5-e]indazol-2-amine] is 298 to 306 °C; for `Clc1cccc(Nc2nc3c(s2)CCc2[nH]ncc2-3)n1` [Compound 1-4, N-(6-Chloropyridin-2-yl)-5,6-dihydro-4H-thiazolo[4,5-e]indazol-2-amine] it is over 300 °C; for `CCC1Cc2[nH]ncc2-c2nc(Nc3ccccn3)sc21` (centres unmarked) [Compound 1-9, 4-Ethyl-N-(pyridin-2-yl)-5,6-dihydro-4H-thiazolo[4,5-e]indazol-2-amine] it is 317 to 319 °C.
The same measure, in the same setting: the figure for `c1n[nH]c2c1-c1nc(NC3CCC3)sc1CC2` [Compound 1-20, N-Cyclobutyl-5,6-dihydro-4H-thiazolo[4,5-e]indazol-2-amine] is 144 to 146 °C.
As to `Cn1ccc(Nc2nc3c(s2)CCCc2[nH]ncc2-3)n1` [Compound 1-27, (1-Methyl-1H-pyrazol-3-yl)-(4,5,6,7-tetrahydro-3-thia-1,7,8-triaza-cyclopenta[e]azulen-2-yl)-amine], the melting point fell in the range of 288 to 293 °C.
On the same count and under the same terms, the figure for `Fc1ccc(Nc2nc3c(s2)CCc2[nH]ncc2-3)nc1` [Compound 1-15, N-(5-Fluoropyridin-2-yl)-5,6-dihydro-4H-thiazolo[4,5-e]indazol-2-amine] is 315 °C (dec.).
The same measure, in the same setting: the figure for `c1n[nH]c2c1-c1nc(NC3CC3)sc1CCC2` [Compound 1-22, Cyclopropyl-(4,5,6,7-tetrahydro-3-thia-1,7,8-triaza-cyclopenta[e]azulen-2-yl)-amine] is 178 to 182 °C.
Consider `c1ccc(Nc2nc3c(s2)CCCc2[nH]ncc2-3)nc1` [Compound 1-8, Pyridin-2-yl-(4,5,6,7-tetrahydro-3-thia-1,7,8-triaza-cyclopenta[e]azulen-2-yl)-amine], for which the EC50 in data set [1] was under 100 nM.
`Fc1cccc(Nc2nc3c(s2)CCc2[nH]ncc2-3)n1` [Compound 1-6, N-(6-Fluoropyridin-2-yl)-5,6-dihydro-4H-thiazolo[4,5-e]indazol-2-amine]: the melting point is over 300 °C. In data set [1], the half-maximal effective concentration (EC50) is 100 to 1000 nM.
On the same counts, the results for `Fc1ccc(F)c(Nc2nc3c(s2)CCc2[nH]ncc2-3)c1` [Compound 1-5, N-(2,5-Difluorophenyl)-5,6-dihydro-4H-thiazolo[4,5-e]indazol-2-amine] are 270 °C (dec.) and 100 to 1000 nM.
For `c1cnc(Nc2nc3c(s2)CCc2[nH]ncc2-3)cn1` [Compound 1-17, N-(Pyrazin-2-yl)-5,6-dihydro-4H-thiazolo[4,5-e]indazol-2-amine], the melting point is over 330 °C.
The same measure, in the same setting: next, `c1n[nH]c2c1-c1nc(NC3CCC3)sc1CCC2` [Compound 1-23, Cyclobutyl-(4,5,6,7-tetrahydro-3-thia-1,7,8-triaza-cyclopenta[e]azulen-2-yl)-amine]: 198 to 221 °C; `Clc1cccc(Nc2nc3c(s2)CCCc2[nH]ncc2-3)n1` [Compound 1-16, (6-Chloro-pyridin-2-yl)-(4,5,6,7-tetrahydro-3-thia-1,7,8-triaza-cyclopenta[e]azulen-2-yl)-amine]: 314 °C (dec.).
